In patent US6660762B2, “Methods and compositions to treat lung diseases” (priority 2001, dated 2003):
“Also recorded” adds a separate entry of the source. Read-outs that look alike come from different tables or passages of the source. Marks after values point to notes of the source that are not given here.

Columns and labels:
[1] = Binding of beryllium to porphyrins by proton NMR in deuterium oxide; conditions: no buffer
Procedure: Initial experiments utilized HBS prepared in deuterium oxide (deuterated water, D2O) to eliminate the protons of water. This was not successful as the HEPES in the buffer also contains protons that interfered with the analysis. Therefore, experiments were conducted with porphyrins 1-5 dissolved in deuterium oxide. Porphyrins were analyzed in the presence and absence of beryllium-Spectra were collected on a 500 MHz JEOL.

[2] = molecular target: T1, Beryllium bound to oxyhemoglobin (Be—Hb) (Homo sapiens, UniProt P68871+P69905); assay: Chelation of hemoglobin bound beryllium by porphyrins (removal of beryllium from Be-Hb); type: binding; conditions: for effect on amount of beryllium associated with hemoglobin (in words): incubation of Be-Hb with porphyrin
T1 construct: purchased Sigma H7379
T1 sequence (P69905 2-142 limits assumed): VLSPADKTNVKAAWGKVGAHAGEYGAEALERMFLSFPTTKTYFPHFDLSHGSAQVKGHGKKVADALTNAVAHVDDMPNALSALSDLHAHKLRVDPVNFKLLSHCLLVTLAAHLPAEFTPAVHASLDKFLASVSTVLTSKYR
T1 sequence (P68871 2-147 limits assumed): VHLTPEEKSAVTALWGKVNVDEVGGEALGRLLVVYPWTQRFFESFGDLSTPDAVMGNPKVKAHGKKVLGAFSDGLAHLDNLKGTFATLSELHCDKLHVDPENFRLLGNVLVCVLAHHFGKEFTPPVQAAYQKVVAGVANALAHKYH
Procedure: Beryllium bound to oxyhemoglobin (Be—Hb) was prepared as described in Section 2.1 (above). To determine if the test porphyrins were able to remove beryllium from hemoglobin, porphyrins were added to the hemoglobin solution at 2.5 times the Be concentration of the solution. One hundred μl of 7.1 mM porphyrin solution (or 100 μl of HBS for controls) was added to 1 ml of […]. This mixture was incubated at 37° C. for 30 minutes. Following incubation, the entire mixture was loaded into a Centricon YM-30 molecular weight cutoff filter. This filter retains molecules with a molecular weight >30,000 (i.e., hemoglobin) and allows smaller molecules (i.e. porphyrin, free beryllium) to pass through. The samples were centrifuged to concentrate hemoglobin on the filter and then washed with 500 μl of HBS to remove any porphyrin or beryllium trapped in the hemoglobin concentrate. Hemoglobin concentrates were collected in 100 μl of HBS according to the manufacturer's instructions. The concentrates were then diluted to 3 mls with HBS. Hemoglobin concentration of each sample was determined spectrophotometrically with Drabkin's reagent. Beryllium content of each sample was determined by ICP-AAS.

Human hemoglobin = molecular target: T2, Human hemoglobin (Homo sapiens, UniProt P68871+P69905); assay: Binding of beryllium to various hemoglobins (Sephadex G-25 separation, ICP-AAS); conditions: incubation at 37° C. for 30 minutes; Be:Hb 2.5:1
T2 construct: purchased Sigma H7379
T2 sequence (P69905 2-142 limits assumed): as the sequence (P69905 2-142 limits assumed) above
T2 sequence (P68871 2-147 limits assumed): as the sequence (P68871 2-147 limits assumed) above
Procedure: These experiments used beryllium nitrate (Aldrich 46,503-8) as a soluble form of beryllium. […] This precipitate was probably an insoluble beryllium phosphate complex. Due to the insolubility of beryllium in PBS at necessary concentrations, experiments were carried out in N-2hydroxyethylpiperazine-N′-2-ethane-sulfonic acid (HEPES)-buffered saline (HBS). HEPES is commonly used as a buffer for biochemical experiments in the physiological pH range. HBS contained 10 mM HEPES, sodium chloride, and potassium chloride, pH 7.4.
Human hemoglobin (Sigma H7379) was dissolved in HBS at a concentration of 40 mg/ml. This hemoglobin was >95% methemoglobin. To reduce the iron and form oxyhemoglobin, 5 mM sodium hydrosulfite was added to the hemoglobin solution. This solution was then dialyzed overnight at 4° C. against HBS to remove residual sodium hydrosulfite. To form carboxyhemoglobin, oxyhemoglobin was gently bubbled with carbon monoxide for 5 minutes. Identity of hemoglobins was confirmed by spectrophotometry prior to experimentation.
Beryllium nitrate was added to a solution of hemoglobin at a molar ratio of 2.5:1 (B e: Hb). This mixture was incubated at 37° C. for 30 minutes. During incubation with beryllium some precipitation of hemoglobin occurred. Precipitate was removed from the samples by centrifugation. Samples of hemoglobin with no beryllium were used as negative controls. Experiments were performed on oxy-, met-, and carboxyhemoglobin.
To isolate beryllium bound to hemoglobin (Be—Hb) from free beryllium, samples were passed through a 1 cm×25 cm Sephadex G-25 column equilibrated in HBS. One milliliter fractions of column eluate were collected. These fractions were diluted to 5 ml with distilled water. The hemoglobin content of each fraction was determined by use of Drabkin's reagent. Beryllium content of each fraction was determined by inductively coupled plasma atomic absorption spectrophotometry (ICP-AAS). A flow chart of this procedure is presented as FIG. 1.

C3H/HEJ mice = assay: Toxicity of aerosolized porphyrins in mice (group bodyweight); type: in vivo
Excerpt: Toxicity of the three porphyrins were studied. Porphyrins were delivered via aerosols into mice. It is considered that beryllium-lung burdened mice will provide in vivo data for the removal of beryllium via urinary secretion tests.
Aqueous solutions of the three porphyrins were aerosolized using a constant-flow Pulmo-Mist pump and nebulizer syste and delivered into cages each housing five female 20+ week old C3H/HEJ mice over a period of twenty days. The group bodyweights of these mice were measured each morning prior to aerosol treatment. Regimens included multiple, constant dosing and dose escalation. Mice in cages receiving multiple doses of 9 mg of one of the select porphyrins began to lose weight (up to 14%) by the third day of treatment. […] Treatments with two porphyrins generally reflected lower and delayed evidence of toxicity compared to that observed with one of the select porphyrins (phthalocyanine tetrasulfonate porphyrin, meso-tetra (4-carboxyphenyl) porphyrin, meso-tetra (4-sulfonatophenyl) porphyrin). Younger mice (about 6 weeks old) were generally more tolerant than older mice, but the rank order of porphyrin toxicity was the same.

Compound | effect on amount of beryllium associated with hemoglobin (in words) [2] | Molar ratio (moles Be:moles Hb) Mean (Human hemoglobin) | μg beryllium/mg hemoglobin Mean (Human hemoglobin) | toxicity / safety of aerosol delivery to lungs (in words) (C3H/HEJ mice) | further results
magnesium phthalocyanine tetrasulfonate tetra sodium salt porphyrin [porphyrin 5] | reduced the amount of beryllium associated with hemoglobin |  |  |  | change in proton NMR spectra on addition of beryllium [1]: suggest a reaction of beryllium with the porphyrin
Oxyhemoglobin: Human hemoglobin reduced with sodium hydrosulfite, iron in the +II oxidation state |  | 2.25 moles Be:moles Hb | 0.438 μg beryllium/mg hemoglobin |  | 
phthalocyanine tetrasulfonate [porphyrin 3] | reduced the amount of beryllium associated with hemoglobin |  |  | maybe safely delivered as aerosols | change in proton NMR spectra on addition of beryllium [1]: suggest a reaction of beryllium with the porphyrin; reduction of the amount of beryllium associated with hemoglobin ([2]; molar excess of porphyrin, 30 minutes at 37° C.): 59%
O=C(O)c1ccc(-c2c3nc(c(-c4ccc(C(=O)O)cc4)c4ccc([nH]4)c(-c4ccc(C(=O)O)cc4)c4nc(c(-c5ccc(C(=O)O)cc5)c5ccc2[nH]5)C=C4)C=C3)cc1 [porphyrin 2, meso-tetra (4-carboxyphenyl) porphyrin] | reduced the amount of beryllium associated with hemoglobin |  |  | maybe safely delivered as aerosols; also recorded: non-toxic | 
Carboxyhemoglobin: oxyhemoglobin gently bubbled with carbon monoxide for 5 minutes |  | 1.88 moles Be:moles Hb | 0.351 μg beryllium/mg hemoglobin |  | 
hemin [porphyrin 1] | reduced the amount of beryllium associated with hemoglobin |  |  |  | 
Methemoglobin: Human hemoglobin (Sigma H7379), >95% methemoglobin, iron in the +III oxidation state |  | 0.13a moles Be:moles Hb | 0.016^a μg beryllium/mg hemoglobin |  | 
O=S(=O)(O)c1ccc(-c2c3nc(c(-c4ccc(S(=O)(=O)O)cc4)c4ccc([nH]4)c(-c4ccc(S(=O)(=O)O)cc4)c4nc(c(-c5ccc(S(=O)(=O)O)cc5)c5ccc2[nH]5)C=C4)C=C3)cc1 [porphyrin 4, meso-tetra (4-sulfonatophenyl) porphyrin] | reduced the amount of beryllium associated with hemoglobin |  |  | maybe safely delivered as aerosols | toxicity / safety of aerosol delivery to lungs (in words) (C3H/HEJ mice; listed as meso-tetra-(4-sulfonate phenyl)): non-toxic
